# Patent US20090061515A1, “Methods of inhibiting or suppressing cellular proliferation” (priority 2007, published 2009)
# Experiments:
# Assay type in all cases: cell-based
# [1] = system: Normal Human Dermal Fibroblast (NHDF) cells; assay: Cell count and visual morphology of NHDF after exposure and after re-plating (Example 3); settings: for cell count: NHDF seeded at 45,000 cells/well, 48 hours of exposure; for growth after re-plating without compound: then 96 hours in fresh media without compound
# Method: (§1) The 5,6-dihydroxy-hexan-2-one (1.2 grams) was dissolved in 12 ml of phosphate buffered saline and was filter sterilized through a 0.22 micrometer syringe filter prior to use. The 5,6-dihydroxy-hexan-2-one was further diluted to 10^−1, 10^−2, 10^−3, 10^−4, 10^−5, and 10^−6 using serial dilutions for the evaluation.
# (§2) NHDF were seeded at 45,000 cells/well in 24 well plate(s). Cells were grown for 72 hours, 48 hours of which was done in the presence of the test chemicals. 24 hours after seeding, 5,6-dihydroxy-hexan-2-one was added to the cell culture plates (2 ml/well). Assay plates were pulled for analysis at 24 and 48 hours after addition of the chemical compound. Samples were analyzed on the above-described assay as provided in the instructions for use of the assay.
# Cell counts were taken after the cells had been plated for 72 hours and exposed to 5,6-dihydroxy-hexan-2-one for 48 hours.
# After 48 hours of exposure to 5,6-dihydroxy-hexan-2-one, a cell count was taken on the 10^−1 concentration group and the 10^−6 concentration group. The 10^−1 cell count was 45,000 cells/well and the 10^−6 cell count was 275,000 cells/well. The count for the 10^−1 concentration group yielded the same number of cells that were previously seeded, while the 10^−6 concentration group had continued to grow rapidly without problems. Cells from these two different groups were then plated out at the same density as before, but without exposure to 5,6-dihydroxy-hexan-2-one and in fresh media for 96 hours. Visual representations of these two groups can be seen in FIG. 5 (10^−1, exposed to 5,6-dihydroxy-hexan-2-one for 48 hours, continued the culture for an additional 96 hours without 5,6-dihydroxy-hexan-2-one) and FIG. 6 (10^−6, exposed to 5,6-dihydroxy-hexan-2-one for 48 hours, continued the culture for an additional 96 hours without 5,6-dihydroxy-hexan-2-one).
# [2] = system: human umbilical vein endothelial cells (HUVEC); assay: CyQuant cell proliferation after 48 hour exposure, HUVEC (Example 6); settings: for cell proliferation: 48 hour exposure
# Method: (§3) Evaluation of the effects of 5,6-dihydroxy-hexan-2-one on human umbilical vein endothelial cells (HUVEC) and Glioblastoma/Astrocytoma cells U87 cellular proliferation and migration during 120 hours following 48 hour exposure to 5,6-dihydroxy-hexan-2-one at concentration of 10 mg/ml, 1 mg/ml, 100 micrograms/ml. Controls were cells not exposed to the agent.
# (§4) In order to further explore the effects of this compound, experiments to evaluate the dose-effect response on the antiproliferative effect and on cell migration were conducted on two cell lines, human umbilical vein endothelial cells (HUVEC) and Glioblastoma/Astrocytoma cells (U87), over 120 hours after 48 hours of exposure to the compound.
# (§5) A cell proliferation assay available under the trade designation CyQuant from Invitrogen Corporation (Carlsbad, Calif.) determines the density of cells in culture by using a green fluorescent dye which fluoresces when bound to cellular nucleic acids.
# [3] = system: human umbilical vein endothelial cells (HUVEC); assay: Cell migration after 48 hours exposure, HUVEC (Example 6); settings: 10 mg/ml and 1 mg/ml
# Method: as §3, §4
# FIGS. 23(a)-(l) are pictures that visually display the migration over time of human umbilical vein endothelial cells (HUVEC) after 48 hours exposure to various concentrations of 5,6-dihydroxy-hexan-2-one. Specifically, FIGS. 23(a)-(d) represent the control, FIGS. 23(e)-(h) represent 10 mg/ml, and FIGS. 23(i)-(l) represent 1 mg/ml 5,6-dihydroxy-hexan-2-one. FIGS. 23(a), (e), and (i) represent migration after 2 hours; FIGS. 23(b), (f), and (j) represent migration after 14 hours; FIGS. 23(c), (g), and (k) represent migration after 20 hours; and FIGS. […], (h), and (l) represent migration after 48 hours.
# [4] = system: Normal Human Dermal Fibroblast (NHDF) cells; assay: Cell migration into scraped monolayer, NHDF (Example 5); settings: 1 and 10 mg/ml, 48 hours exposure then 72 hours growth
# Method: (§6) In a similar manner, cell migration was explored in vitro by scraping the cell monolayer and culturing the cells in the presence of 5,6-dihydroxy-hexan-2-one at concentrations of 1 mg/ml and 10 mg/ml. FIGS. 20(a)-(l) are pictures that visually display the migration of coronary artery smooth muscle cells (CASMC) (FIGS. 20(a)-(f)) and normal human dermal fibroblast (NHDF) cells (FIGS. 20(g)-(l)) exposed to various concentrations of 5,6-dihydroxy-hexan-2-one after 48 hours exposure, then cultured an additional 72 hours after removal of the 5,6-dihydroxy-hexan-2-one as described in Example 5. Specifically, FIGS. 20(a) and (b) represent the CASMC control at time zero and 72 hours, respectively; FIGS. 20(c) and (d) represent CASMC (10 mg/ml) at time zero and 72 hours, respectively; and FIGS. 20(e) and (f) represent CASMC (1 mg/ml) at time zero and 72 hours, respectively. FIGS. 20(g) and (h) represent the NHDF cell control at time zero and 72 hours, respectively; FIGS. 20(i) and (j) represent NHDF cells (10 mg/ml) at time zero and 72 hours, respectively; and FIGS. 20(k) and (l) represent NHDF cells (1 mg/ml) at time zero and 72 hours, respectively.
# (§7) Cell migration judged by the ability of cells to repopulate the scraped “acellular” space over time indicated no microscopically identifiable effect by the agent at the concentrations tested. […]
# [5] = system: Normal Human Dermal Fibroblast (NHDF) cells; assay: CytoTox 96 LDH release cytotoxicity assay (Example 3)
# Method: The assay used was a non-radioactive cytotoxicity assay available under the trade designation CytoTox 96 from Promega Corporation (Madison, Wis.), which was designed to determine the cytotoxicity of a substance by quantitatively measuring the presence of lactate dehydrogenase (LDH) in cell culture supernatant. The enzymatic assay utilizes the LDH released in the supernatant in the conversion of a tetrazolium salt substrate into a red formazan product. This resulting product is measured using a standard 96 well plate reader where the absorbance recorded at 490 nanometers is directly proportional to the number of lysed cells. The Normal Human Dermal Fibroblasts were available from Clonetics Corporation (San Diego, Calif.).
# as §1
# as §2, with “Assay plates were pulled for analysis at 24 and 48 hours after addition of the chemical compound.” left out
# [6] = system: coronary artery smooth muscle cells (CASMC); assay: Cell migration into scraped monolayer, CASMC (Example 5); settings: 1 and 10 mg/ml, 48 hours exposure then 72 hours growth
# Method: as §6, §7
# [7] = system: human Glioblastoma/Astrocytoma U87 cells; assay: CyQuant cell proliferation after 48 hour exposure, U87 (Example 6); settings: for cell proliferation: 48 hour exposure
# Method: as §3, §4, §5
smiles,measurement,setting,value
"CC(=O)CCC(O)CO (centres unmarked) [5,6-dihydroxy-hexan-2-one]",cell count,[1]; 10^-1 concentration,"45,000 cells/well"
same,cell count,[1]; 10^-6 concentration,"275,000 cells/well"
same,growth after re-plating without compound,"[1]; NHDF, 10^-1, exposed 48 hours",impaired ability for cell proliferation
same,visual morphological study,"[1]; NHDF, 10^-1 concentration, 24 and 48 hours",signs of cell distress
same,visual physical cellular response,"[1]; NHDF, 10^-1 concentration, 48 hours",Fewer human dermal fibroblasts cells were observed
same,growth after re-plating without compound,"[1]; NHDF, 10^-6, exposed 48 hours",continued to grow without problems
same,cell proliferation,[2]; 10 mg/ml,antiproliferative effects
same,time after withdrawal at which inhibitory effect was still observed,"[2]; 10 mg/ml, after 48 hour exposure",≥ 120 h
same,cell proliferation,[2]; lowest concentration evaluated (100 micrograms/ml),no antiproliferative effects
same,cell migration,[3],did not shown differences
same,cell migration,[4],not affected
same,"cytotoxicity (LDH release), in words",[5]; 10^-1 concentration,no significant cytotoxicity
same,"cytotoxicity (LDH release), in words","[5]; various concentrations, 48 hours",no increase in cytotoxicity
same,cell migration,[6],not affected
same,cell proliferation,"[7]; U87, 10 mg/ml",antiproliferative effects
same,time after withdrawal at which inhibitory effect was still observed,"[7]; U87, 10 mg/ml, after 48 hour exposure",≥ 120 h
same,cell proliferation,"[7]; U87, lowest concentration evaluated (100 micrograms/ml)",no antiproliferative effects
